What all share (test): inhibition of tumour cell growth, NCI panel, 48 h
Assay [1] has as its system K-562 leukemia.
For assay [2], the system named is M14 melanoma.
Assay [3] concerns BT-549 breast.
Assay [4] relates to PC-3 prostate.
For assay [5], the system named is SK-MEL-28 melanoma.
In assay [6] the test system is 786-0 renal.
The test system of assay [7] is OVCAR-4 ovarian.
Assay [8] relates to SR leukemia.

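Where inhibition never reached the appropriate level, the endpoint shown equals the highest concentration tested. Otherwise, values were interpolated linearly from a five-concentration, 48-hour dose response in 96-well plates. At the GI50, growth is halved. TGI: concentration producing complete growth inhibition.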 Where only a bound is given, the exact number is not on record here.

Data on 19 compounds can be found in PubChem BioAssay (NCI).

In the case of `COC1OC2COC(C)(C)OC2C2OC(C)(C)OC12` (configuration not stated), the TGI in assay [1] was more than 100 µM; in assay [2], more than 100 µM; in assay [3] it was more than 100 µM; in assay [4], more than 100 µM; in assay [5], more than 100 µM; in assay [6] it was 52 µM. The compound also came in with a TGI in assay [7] of more than 100 µM.
Take `Nc1nc(Nc2ccc(OCc3cccc(F)c3)cc2)c2c(n1)[nH]c1ccc(O)cc12`: the GI50 in assay [1] is 2.66 µM; in assay [2] it was 2.12 µM; in assay [3] it was 1.88 µM; in assay [4], 3.71 µM; in assay [5], 2.26 µM; in assay [8], 2.13 µM. For the same compound, the GI50 in assay [7] is 2.18 µM. Also, the TGI in assay [1] is 6.65 µM; in assay [2], 4.77 µM; in assay [3], 4.01 µM; in assay [4] it was 14.7 µM; in assay [5], 5.59 µM; in assay [8], 5.87 µM. For the same compound, the TGI in assay [7] is 6.04 µM.
For the compound `NC(=S)N=Nc1c(O)cc(Nc2ccc(Cl)cc2Cl)c2ccccc12`, the TGI in assay [2] is more than 100 µM; in assay [3] it was 97.5 µM; in assay [5], more than 100 µM; in assay [6], 26.3 µM; in assay [7] it was more than 100 µM.
In the case of `CCN(CC(=O)O)CC(=O)O`, the TGI in assay [1], in assay [2], in assay [3], in assay [4], in assay [5] and in assay [6] was more than 100 µM throughout. The same compound returned a TGI in assay [7] of more than 100 µM.
Turning to `O=C1c2c(c3c4ccc(Br)cc4oc3c3[nH]c4ccccc4c23)C(=O)N1O`, in assay [1], the GI50 was 2.07 µM and the TGI was more than 100 µM. In assay [4], the GI50 is 1.3 µM and the TGI is more than 100 µM.
As to `Cc1cc2c(cc1Cl)SC(NNc1cnc3ccccc3n1)=NS2(=O)=O`, the TGI in assay [1], in assay [2], in assay [3], in assay [4], in assay [5] and in assay [6] was more than 100 µM throughout. In assay [7], this compound displayed a TGI of more than 100 µM.
For `CC1=C(C(=O)NNC(=O)CC#N)CC(C(=O)NNC(=O)CC#N)=C(C)N1`, the TGI in assay [2], in assay [3], in assay [5], in assay [6] and in assay [7] was more than 100 µM in each case.
For `CCN(CC)C(=S)SS(=O)(=O)c1ccc(C)cc1`, the TGI in assay [1] is more than 100 µM; in assay [2], 28.2 µM; in assay [3], 68.2 µM; in assay [5], 39.4 µM; in assay [6], 50.5 µM; in assay [7], more than 100 µM.
Consider `COC(=O)c1cc(C(=O)OC)cc(-c2ccc3c(c2)-c2nc4c(c(-c5ccc(OC)cc5)c2CC3)CCc2ccc(-c3cc(C(=O)OC)cc(C(=O)OC)c3)cc2-4)c1`, for which the TGI in assay [1] is 1.06 µM; in assay [2] it was more than 100 µM; in assay [3] it was more than 100 µM; in assay [4], more than 100 µM; in assay [5], more than 100 µM; in assay [6] it was more than 100 µM. In addition, the TGI in assay [7] was more than 100 µM.
As to `Cc1ncc([N+](=O)[O-])n1CCNC(=O)CCCCn1ccnc1[N+](=O)[O-]`, the TGI in assay [1], in assay [2], in assay [3], in assay [4], in assay [8] and in assay [6] was more than 100 µM throughout.
On to `O=C(O)c1cc2ccccc2c(S(=O)(=O)O)c1O`, for which the TGI in assay [1], in assay [2], in assay [3], in assay [4], in assay [5] and in assay [6] was more than 100 µM each time. For the same compound, the TGI in assay [7] is more than 100 µM.
In the case of `CC(C)Cc1c(C#N)c(C#N)c(N)n1Cc1ccccc1`, the TGI in assay [1], in assay [2], in assay [3], in assay [4], in assay [8] and in assay [6] was more than 100 µM in each case. The same compound came in with a TGI in assay [7] of more than 100 µM.
As for `Clc1cccc(C2ON=C(c3ccccc3)N2C23CC4CC(CC(C4)C2)C3)c1Cl` (configuration not stated), the TGI in assay [1], in assay [2], in assay [4], in assay [5], in assay [6] and in assay [7] was more than 10 µM each time.
`CN1c2ccccc2C(=O)NC12CCN(CC1COc3ccccc3O1)CC2` (configuration not stated): the TGI in assay [1], in assay [2], in assay [5], in assay [8], in assay [6] and in assay [7] was more than 100 µM each time.
Consider `O=c1c(Cc2ccccc2)c(-c2ccccc2)[nH]n1C1=NCCN1`, for which the TGI in assay [1], in assay [2], in assay [3], in assay [4], in assay [8] and in assay [6] was more than 100 µM in each case. The same compound came in with a TGI in assay [7] of more than 100 µM.
On to `c1ccc(-c2ccc(N=NN3CCCC3)cc2)cc1`, for which the TGI in assay [1], in assay [2], in assay [3], in assay [4], in assay [8] and in assay [6] was more than 100 µM in each case. In addition, the TGI in assay [7] was more than 100 µM.
On to `CC1=NC(C)(C)N(O)C1(C)C`, for which the TGI in assay [1], in assay [2], in assay [4], in assay [5], in assay [8] and in assay [6] was more than 100 µM in each case. In addition, the TGI in assay [7] was more than 100 µM.
On to `COc1ccc(CN2C(=O)C(=O)N(C)C2=O)c2ccccc12`, for which the TGI in assay [1], in assay [2], in assay [4], in assay [5], in assay [8] and in assay [7] was more than 10 µM each time.
Turning to `O=C1NN=C(c2c[nH]c3ccccc23)CC1NCc1ccccc1` (configuration not stated), the TGI in assay [1], in assay [2], in assay [3], in assay [4], in assay [5] and in assay [6] was more than 100 µM in each case.
